Reference: the CheMixHub viscosity set

Test: xn = mol fraction of the nth substance listed

Nc1cccc(Cl)c1 + CCCCCCCCCCO
viscosity [mPa·s], 101 kPa
Details | x1 = 0.1699 | x1 = 0.3153 | x1 = 0.4411 | x1 = 0.5511 | x1 = 0.6481 | x1 = 0.7342 | x1 = 0.8112 | x1 = 0.8805 | x1 = 0.9431
303.15 K | 8.772 | 7.947 | 7.247 | 6.641 | 6.113 | 5.648 | 5.238 | 4.871 | 4.546
308.15 K | 7.358 | 6.71 | 6.16 | 5.687 | 5.274 | 4.912 | 4.593 | 4.31 | 4.061
313.15 K | 6.213 | 5.693 | 5.254 | 4.878 | 4.549 | 4.262 | 4.01 | 3.788 | 3.596
318.15 K | 5.338 | 4.899 | 4.532 | 4.217 | 3.943 | 3.704 | 3.494 | 3.311 | 3.153

Nc1cccc(Cl)c1 + CCCCCCCCO
viscosity [mPa·s], 101 kPa
Details | x1 = 0.1441 | x1 = 0.2748 | x1 = 0.3937 | x1 = 0.5026 | x1 = 0.6025 | x1 = 0.6945 | x1 = 0.7795 | x1 = 0.8584 | x1 = 0.9317
303.15 K | 6.059 | 5.754 | 5.485 | 5.247 | 5.034 | 4.844 | 4.674 | 4.519 | 4.379
308.15 K | 5.155 | 4.924 | 4.723 | 4.547 | 4.391 | 4.253 | 4.131 | 4.02 | 3.924
313.15 K | 4.409 | 4.229 | 4.076 | 3.941 | 3.823 | 3.721 | 3.63 | 3.551 | 3.483
318.15 K | 3.856 | 3.697 | 3.564 | 3.448 | 3.347 | 3.258 | 3.181 | 3.114 | 3.06

Nc1cccc(Cl)c1 + CCCCCCCO
viscosity [mPa·s], 101 kPa
Details | x1 = 0.1306 | x1 = 0.2526 | x1 = 0.3669 | x1 = 0.4741 | x1 = 0.5749 | x1 = 0.6698 | x1 = 0.7593 | x1 = 0.844 | x1 = 0.9241
303.15 K | 4.923 | 4.794 | 4.684 | 4.589 | 4.509 | 4.442 | 4.385 | 4.336 | 4.292
308.15 K | 4.229 | 4.143 | 4.072 | 4.014 | 3.966 | 3.927 | 3.895 | 3.869 | 3.853
313.15 K | 3.647 | 3.585 | 3.538 | 3.501 | 3.473 | 3.451 | 3.438 | 3.433 | 3.432
318.15 K | 3.346 | 3.269 | 3.207 | 3.156 | 3.114 | 3.079 | 3.051 | 3.032 | 3.023

Nc1cccc(Cl)c1 + CCCCCCO
viscosity [mPa·s], 101 kPa
Details | x1 = 0.1167 | x1 = 0.2291 | x1 = 0.3375 | x1 = 0.4421 | x1 = 0.5431 | x1 = 0.6407 | x1 = 0.735 | x1 = 0.8263 | x1 = 0.9145
303.15 K | 3.905 | 3.925 | 3.95 | 3.98 | 4.014 | 4.056 | 4.104 | 4.156 | 4.205
308.15 K | 3.383 | 3.417 | 3.454 | 3.497 | 3.545 | 3.598 | 3.654 | 3.715 | 3.776
313.15 K | 2.939 | 2.976 | 3.017 | 3.064 | 3.115 | 3.17 | 3.229 | 3.292 | 3.357
318.15 K | 2.662 | 2.681 | 2.707 | 2.738 | 2.773 | 2.814 | 2.857 | 2.906 | 2.959

CCCCCCCCCCCCCC[P+](CCCCCC)(CCCCCC)CCCCCC.c1c[n-]nn1 + CCCCCCn1cc[n+](C)c1.O=S(=O)([N-]S(=O)(=O)C(F)(F)F)C(F)(F)F
viscosity [mPa·s], 100 kPa
Details | 293.15 K | 298.15 K | 303.15 K | 308.15 K | 313.15 K | 318.15 K | 323.15 K
x1 = 0.151 | 159 | 122 | 96 | 77 | 62 | 51 | –
x1 = 0.302 | 268 | 200 | 152 | 119 | 94 | 76 | 62
x1 = 0.42 | 402 | 294 | 219 | 168 | 131 | 104 | 84
x1 = 0.55 | 498 | 358 | 262 | 197 | 151 | 118 | 94
x1 = 0.652 | 614 | 437 | 317 | 236 | 180 | 139 | 109
x1 = 0.7 | 725 | 511 | 369 | 274 | 206 | 159 | 125
x1 = 0.865 | 744 | 527 | 382 | 284 | 215 | 166 | 131

C1C[C@@H]2[C@H]3CC[C@H](C3)[C@@H]2C1 + CCCCCO
viscosity [mPa·s], 101 kPa
Details | x2 = 0.1465 | x2 = 0.2782 | x2 = 0.3987 | x2 = 0.5049 | x2 = 0.6067 | x2 = 0.6985 | x2 = 0.7827 | x2 = 0.8623 | x2 = 0.9326
293.15 K | 2.919 | 2.901 | 2.955 | 3.058 | 3.19 | 3.372 | 3.549 | 3.718 | 3.916
298.15 K | 2.621 | 2.595 | 2.622 | 2.7 | 2.807 | 2.953 | 3.095 | 3.27 | 3.411
303.15 K | 2.379 | 2.346 | 2.354 | 2.41 | 2.487 | 2.607 | 2.726 | 2.852 | 2.971
313.15 K | 1.972 | 1.92 | 1.914 | 1.922 | 1.957 | 2.033 | 2.107 | 2.18 | 2.253

CC(=O)C=C(C)C + CCCCCOC(C)=O
298.15 K, 101 kPa
Details | viscosity [mPa·s]
x1 = 0.11 | 0.7593
x1 = 0.167 | 0.7461
